Patent US12458581B2, “Carboxylic acid loaded salt carrier and the method for producing thereof” (priority 2021, dated 2025)
Like-named read-outs stand apart in the source and are kept apart here. Blank lines part the entries; values can stand above or below the compound they belong to.

Columns and labels:
[1] = pH measurement of 0.1 M aqueous solutions; type: physicochemical; conditions: r.t.; for pH values compound: 0.1 M in millipore water, average of at least three measurements; for pH value / pH value of the reference material (non-loaded carrier salt): 0.1 M; for pH value: compound made via in-situ process
Description: For the pH measurements, a Seven2Go portable pH meter S2 (pH measuring-range: −2 to 20; resolution: 0.01) with an InLab Ultra Micro-ISM electrode (measuring range: pH −1 to pH 11; low temperature membrane glass type; ceramic diaphragm; reference system with Ag^+ ion trap by argenthal) as well as with an in-lab routine pH electrode (measuring range: pH 0 to pH 14; ceramic diaphragm; reference system with Ag^+ ion trap by argenthal) from Mettler-Toledo AG (Analytical, Switzerland) was used.
For sake of comparability, compounds of the same loading ratio n=2, which is 2:1 of the loaded carboxylic acid with respect to the carrier carboxylic acid, were selected for this analysis. […] The analytes were dissolved in millipore water, stirred for 5 minutes in an airtight vial to perform the pH measurements thereafter at r.t. All measurements were performed at 0.1 molar (M) concentration of the samples, which is 0.1 mol per liter (mol/L).
For sake of reliability, every result stated is the average of at least three single measurements. […] The numbers 1-73 (nr., first row) are used as an assignment for the 73 pairs, comprising the compound of invention (third row), the corresponding carrier carboxylic acid (fourth row) and the loaded carboxylic acid (fifth row), as used in the FIG. 6.

[2] = mean particle diameter
[3] = Thermal analysis (TGA/DTA); type: physicochemical
Protocol: Thermal analysis was carried out with a Linseis STA 1600 simultaneous thermal analyzer to determine simultaneous changes of weight (TGA signal) and caloric measurable transformations (DTA signal) in a temperature range between r.t. and 300° C.

SMILES: CC(=O)O.CC(=O)O.CC(=O)O.CC(=O)[O-].CC(=O)[O-].[Ca+2] [CaAc-HAc [3]]
pH values compound [1]: 4.62

SMILES: CC(=O)[O-].CC(=O)[O-].CCC(=O)O.CCC(=O)O.[Ca+2] [CaAc-HProp [2]]
pH values compound [1]: 5.16

SMILES: CC(=O)O.CC(=O)O.O=C1OC(C(O)CO)C([O-])=C1O.O=C1OC(C(O)CO)C([O-])=C1O.[Ca+2] (centres unmarked) [CaAsc-HAc [2], calcium ascorbate with loaded acetic acid]
pH values compound [1]: 4.42

SMILES: CC(=O)O.CC(=O)O.CC(=O)O.O=C1OC(C(O)CO)C([O-])=C1O.O=C1OC(C(O)CO)C([O-])=C1O.[Ca+2] (centres unmarked) [CaAsc-HAc [3], calcium ascorbate with loaded acetic acid]
pH values compound [1]: 4.22

SMILES: CC(=O)O.CC(=O)O.CC(=O)O.CC(=O)O.O=C1OC(C(O)CO)C([O-])=C1O.O=C1OC(C(O)CO)C([O-])=C1O.[Ca+2] (centres unmarked) [CaAsc-HAc [4]]
pH values compound [1]: 4.22

SMILES: CC(=O)O.CC(=O)O.CC(=O)O.CC(=O)O.CC(=O)O.CC(=O)O.O=C1OC(C(O)CO)C([O-])=C1O.O=C1OC(C(O)CO)C([O-])=C1O.[Ca+2] (centres unmarked) [CaAsc-HAc [6]]
pH values compound [1]: 4.12

SMILES: CCC(=O)O.CCC(=O)O.O=C1OC(C(O)CO)C([O-])=C1O.O=C1OC(C(O)CO)C([O-])=C1O.[Ca+2] (centres unmarked) [CaAsc-HProp [2], calcium ascorbate with loaded propionic acid]
pH values compound [1]: 4.88

SMILES: CC(=O)O.CC(=O)O.NC(CC(=O)[O-])C(=O)[O-].[Ca+2] (centres unmarked) [CaAsp-HAc [2]]
pH values compound [1]: 4.42

SMILES: NC(CC(=O)[O-])C(=O)[O-].O=C(O)CO.O=C(O)CO.[Ca+2] (centres unmarked) [CaAsp-HGly [2]]
pH values compound [1]: 3.88

SMILES: CC(=O)O.CC(=O)O.O=C([O-])c1ccccc1.O=C([O-])c1ccccc1.[Ca+2] [CaBen-HAc [2]]
pH values compound [1]: 4.46

SMILES: CCC(=O)O.CCC(=O)O.O=C([O-])c1ccccc1.O=C([O-])c1ccccc1.[Ca+2] [CaBen-HProp [2]]
pH values compound [1]: 4.64

SMILES: CC(=O)O.CC(=O)O.O=C[O-].O=C[O-].[Ca+2] [CaFo-HAc [2]]
pH values compound [1]: 4.74

SMILES: CC(=O)O.CC(=O)O.O=C([O-])/C=C/C(=O)[O-].[Ca+2] [CaFum-HAc [2]]
pH values compound [1]: 4.17

pH values compound [1]: 3.58
SMILES: O=C([O-])/C=C/C(=O)[O-].O=CO.O=CO.[Ca+2] [CaFum-HFo [2]]

SMILES: CC(O)C(=O)O.CC(O)C(=O)O.O=C([O-])/C=C/C(=O)[O-].[Ca+2] [CaFum-HLac [2]]
pH values compound [1]: 3.68

SMILES: CCC(=O)O.CCC(=O)O.O=C([O-])/C=C/C(=O)[O-].[Ca+2] [CaFum-HProp [2]]
pH values compound [1]: 4.27

SMILES: CC(=O)O.CC(=O)O.NC(CCC(=O)[O-])C(=O)[O-].[Ca+2] (centres unmarked) [CaGlu-HAc [2]]
pH values compound [1]: 4.52

SMILES: CC(O)C(=O)O.CC(O)C(=O)O.CC(O)C(=O)O.CC(O)C(=O)O.NC(CCC(=O)[O-])C(=O)[O-].[Ca+2] (centres unmarked) [CaGlu-HLac [4]]
pH values compound [1]: 3.60

SMILES: CCC(=O)O.CCC(=O)O.O=C([O-])CO.O=C([O-])CO.[Ca+2] [CaGly-HProp [2]]
pH values compound [1]: 4.63

SMILES: CC(=O)O.CC(=O)O.CC(O)C(=O)[O-].CC(O)C(=O)[O-].[Ca+2] (centres unmarked) [CaLac-HAc [2]]
pH values compound [1]: 4.58

SMILES: CC(O)C(=O)O.CC(O)C(=O)O.CC(O)C(=O)[O-].CC(O)C(=O)[O-].[Ca+2] (centres unmarked) [CaLac-HLac [2]]
pH values compound [1]: 3.45

SMILES: CC(O)C(=O)O.CC(O)C(=O)O.CC(O)C(=O)O.CC(O)C(=O)[O-].CC(O)C(=O)[O-].[Ca+2] (centres unmarked) [CaLac-HLac [3]]
pH values compound [1]: 3.38

SMILES: CC(O)C(=O)O.CC(O)C(=O)O.CC(O)C(=O)O.CC(O)C(=O)O.CC(O)C(=O)[O-].CC(O)C(=O)[O-].[Ca+2] (centres unmarked) [CaLac-HLac [4]]
pH values compound [1]: 3.30

SMILES: CCC(=O)O.CCC(=O)O.O=C([O-])CC(O)C(=O)[O-].[Ca+2] (centres unmarked) [CaM-HProp [2]]
pH values compound [1]: 4.45

SMILES: CC(=O)O.CC(=O)O.O=C([O-])CC(O)C(=O)[O-].[Ca+2] (centres unmarked) [CaMa-HAc [2]]
pH values compound [1]: 4.53

SMILES: CC(=O)O.CC(O)C(=O)O.CCC(=O)O.O=C([O-])CC(O)C(=O)[O-].[Ca+2] (centres unmarked) [CaMa-HAc-HProp-HLac [1,1,1]]
pH values compound [1]: 4.97

SMILES: CC(=O)O.CC(=O)O.O=C([O-])CCC(=O)[O-].[Ca+2] [CaSuc-HAc [2]]
pH values compound [1]: 4.69

SMILES: CCC(=O)O.CCC(=O)O.O=C([O-])CCC(=O)[O-].[Ca+2] [CaSuc-HProp [2]]
pH values compound [1]: 5.01

SMILES: CC(=O)O.CC(=O)O.CC(=O)O.CC(=O)O.O=C([O-])C(O)C(O)C(=O)[O-].[Ca+2] (centres unmarked) [CaT-HAc [4], calcium tartrate with loaded acetic acid]
pH values compound [1]: 3.33 | pH value [1]: 3.33

SMILES: CC(=O)O.CC(=O)O.CC(=O)O.CC(=O)O.CC(=O)O.O=C([O-])C(O)C(O)C(=O)[O-].[Ca+2] (centres unmarked) [CaT-HAc [5]]
pH values compound [1]: 3.84

SMILES: CC(=O)O.CC(O)C(=O)O.CCC(=O)O.O=C([O-])C(O)C(O)C(=O)[O-].[Ca+2] (centres unmarked) [CaT-HAc-HPro-HLac [1,1,1]]
pH values compound [1]: 3.33

SMILES: CC(=O)O.CCC(=O)O.O=C([O-])C(O)C(O)C(=O)[O-].[Ca+2] (centres unmarked) [CaT-HAc-HProp [1,1], calcium tartrate with loaded acetic acid and propionic acid]
dav [2]: 220 μm | dav ([2]; listed as CaT-HAc—HProp [1,1]): approximately 220 μm | pH values compound [1]: 3.63 | pH value [1]: 3.63

SMILES: CC(O)C(=O)O.CC(O)C(=O)O.O=C([O-])C(O)C(O)C(=O)[O-].[Ca+2] (centres unmarked) [CaT-HLac [2], calcium tartrate with loaded lactic acid]
pH values compound [1]: 3.27 | pH value [1]: 3.27

SMILES: CCC(=O)O.CCC(=O)O.O=C([O-])C(O)C(O)C(=O)[O-].[Ca+2] (centres unmarked) [CaT-HProp [2], calcium tartrate with loaded propionic acid]
pH values compound [1]: 3.71

SMILES: CC(=O)O.CC(=O)O.CC(=O)[O-].CC(=O)[O-].[Mg+2] [MgAc-HAc [2]]
pH values compound [1]: 5.06

SMILES: CC(=O)[O-].CC(=O)[O-].CCC(=O)O.CCC(=O)O.[Mg+2] [MgAc-HProp [2]]
pH values compound [1]: 5.51

SMILES: CC(=O)O.CC(=O)O.O=C1OC(C(O)CO)C([O-])=C1O.O=C1OC(C(O)CO)C([O-])=C1O.[Mg+2] (centres unmarked) [MgAsc-HAc [2]]
pH values compound [1]: 4.34

SMILES: CC(=O)O.CC(=O)O.O=C[O-].O=C[O-].[Mg+2] [MgFo-HAc [2], magnesium formate with loaded acetic acid]
pH values compound [1]: 5.10 | pH value [1]: 5.10

SMILES: O=CO.O=CO.O=C[O-].O=C[O-].[Mg+2] [MgFo-HFo [2]]
pH values compound [1]: 6.54

SMILES: CC(O)C(=O)O.CC(O)C(=O)O.O=C[O-].O=C[O-].[Mg+2] (centres unmarked) [MgFo-HLac [2]]
pH values compound [1]: 3.72

SMILES: CCC(=O)O.CCC(=O)O.O=C[O-].O=C[O-].[Mg+2] [MgFo-HProp [2], magnesium formate with loaded propionic acid]
pH values compound [1]: 4.84 | thermal stability of the carrier carboxylic acid salt [3]: up to 300 °C | water release on heating (TGA) ([3]; constant heating, 1° C. to 300° C., FIG. 4(A)): no water is released | total loss of weight (TGA) ([3]; dry sample, heating in the range of 125° C. to 200° C., 2 K/min, nitrogen): 24.4%

SMILES: CC(=O)O.CC(=O)O.O=C([O-])/C=C/C(=O)[O-].[Mg+2] [MgFum-HAc [2]]
pH values compound [1]: 4.13

pH values compound [1]: 3.76
SMILES: O=C([O-])/C=C/C(=O)[O-].O=CO.O=CO.[Mg+2] [MgFum-HFo [2]]

SMILES: CC(O)C(=O)O.CC(O)C(=O)O.O=C([O-])/C=C/C(=O)[O-].[Mg+2] [MgFum-HLac [2]]
pH values compound [1]: 3.69

SMILES: CCC(=O)O.CCC(=O)O.O=C([O-])/C=C/C(=O)[O-].[Mg+2] [MgFum-HProp [2]]
pH values compound [1]: 4.24

SMILES: CC(=O)O.CC(=O)O.CC(O)C(=O)[O-].CC(O)C(=O)[O-].[Mg+2] (centres unmarked) [MgLac-HAc [2]]
pH values compound [1]: 4.43

SMILES: CC(=O)O.CC(O)C(=O)[O-].CC(O)C(=O)[O-].CCC(=O)O.[Mg+2] (centres unmarked) [MgLac-HAc-HProp [1,1]]
pH values compound [1]: 4.48

SMILES: CC(O)C(=O)O.CC(O)C(=O)O.CC(O)C(=O)[O-].CC(O)C(=O)[O-].[Mg+2] (centres unmarked) [MgLac-HLac [2]]
pH values compound [1]: 3.31

SMILES: CC(O)C(=O)[O-].CC(O)C(=O)[O-].CCC(=O)O.CCC(=O)O.[Mg+2] (centres unmarked) [MgLac-HProp [2]]
pH values compound [1]: 4.45

SMILES: CC(=O)O.CC(=O)O.O=C([O-])CCC(=O)[O-].[Mg+2] [MgSuc-HAc [2]]
pH values compound [1]: 4.69

SMILES: CCC(=O)O.CCC(=O)O.O=C([O-])CCC(=O)[O-].[Mg+2] [MgSuc-HProp [2]]
pH values compound [1]: 5.18

SMILES: O=C([O-])C(O)C(O)C(=O)[O-].[Ca+2] (centres unmarked) [calcium tartrate, reference compound]
pH value of the reference material (non-loaded carrier salt) [1]: 7.33

SMILES: O=C[O-].O=C[O-].[Mg+2] [magnesium formate, reference compound]
pH value of the reference material (non-loaded carrier salt) [1]: 7.90
